The target of one data set is T1, human thrombin (Homo sapiens, UniProt P00734).
T1 construct: carries out limited proteolysis of prothrombin, thereby forming thrombin; purchased Sigma Chemical
Nature of the data set: Measurement of thrombin inhibitory action (IC50). In kind it is biochemical. As to the method: Measurement of Thrombin Inhibitory Action (IC50)
In a 96-well microtiter plate, 10 μl of a sample solution, 40 μl of a 100 mM tris.200 mM sodium chloride 0.2% BSA (pH: 7.4) buffer and 10 μl of 4 U/ml human thrombin (Sigma Chemical, dissolved in and diluted with a measuring buffer) were poured in portions, followed by the addition of 40 μl of 500 μM S2266 (product of Chromogenix). An increase (mOD/min) in the absorbance at 405 nm was measured at room temperature. From the below-described equation, an inhibitory ratio % of each sample was determined. On a logarithmic probability paper, the final concentration of the sample and inhibitory ratio % were plotted along the abscissa and the ordinate, respectively, whereby a 50% inhibitory concentration (IC50) was found.
(§1) Inhibitory ratio (%)=(1−OD of sample÷OD of control)×100

The test system of data set [1] is prothrombin time of the plasma. Put plainly: Test of oral administration: coagulation extending action (prothrombin time). In kind it is in vivo, Wistar male rat. Conditions: rat, oral administration of 30 mg/kg. How it is done:
(§2) A sample was dissolved or suspended in a 0.5% (w/v) methyl cellulose solution and the resulting solution or suspension was orally administered (10 ml/kg) to a 8 to 11 week-old rat (Wistar male rat (Nippon SLC Co., Ltd.)) which had been fasted overnight. After administration of the sample, the blood to which 1/10 part by weight of 3.13% (w/v) sodium citrate had been added was collected from the cervical vein under anesthesia with halothane. The rat was awakened except during the blood collection. Feeding was re-started 6 hours after the blood collection. From each blood sample, the plasma was separated by centrifugal separation and anti-FXa activity in the blood and prothrombin time extending action were measured.
To 20 μl of the plasma, 40 μl of cynplastin (Organon Teknika/USA) was added and the coagulation time was measured. The ratio of the prothrombin time after the administration of the sample relative to the prothrombin time before the administration of the sample was designated as an index of the coagulation extending action.

The target in a further data set is human Factor Xa (Homo sapiens, UniProt P00742). Put plainly: Test of oral administration: anti-FXa activity in the plasma. The class given is in vivo, Wistar male rat. Conditions: rat, one hour after the oral administration of 30 mg/kg. As to the method: as §2
In a 96-well plate, 5 μl of the plasma was poured in portions, followed by the addition of 55 μl of a 8:1:2 mixture of 100 mM tris.200 mM sodium chloride.0.2% BSA (pH 7.4) buffer, water and 0.1 U/ml human Factor Xa solution (dissolved in and diluted with a measuring buffer) and 40 μl of 750 μM S-2222. After stirring for 10 seconds in a plate mixer, an increase (mOD/min) of the absorbance at 405 nm was measured at room temperature. The inhibitory ratio was calculated as follows:
An inhibitory ratio (%)=(1−OD of sample÷OD of control on average relative to blood-collecting time of sample)×100

A further data set deals with T2, human FXa (Homo sapiens, UniProt P00742).
T2 construct: purchased Cosmobio-ERL HFXa-1011
Put plainly: Measurement of FXa inhibitory action (IC50). In kind it is biochemical. As to the method: Measurement of FXa Inhibitory Action (IC50)
From the below-described equation, an inhibitory ratio % of each sample was determined.
as §1

Setting [2] is: 4 U/ml human thrombin, substrate S2266, absorbance at 405 nm, room temperature, read-out: Concentration (nM) of the sample at which 50% of thrombin activity is inhibited.
Where [3] appears, read: 0.05 U/ml human FXa, substrate S2222, absorbance at 405 nm, room temperature, read-out: Concentration (nM) of the sample at which 50% of Fxa activity is inhibited.

Counter-ions that a name gives are not always drawn. Like-named read-outs stand apart in the source and are kept apart here. Bounds are passed on as bounds.

T2 sequence (P00742 235-488 limits assumed): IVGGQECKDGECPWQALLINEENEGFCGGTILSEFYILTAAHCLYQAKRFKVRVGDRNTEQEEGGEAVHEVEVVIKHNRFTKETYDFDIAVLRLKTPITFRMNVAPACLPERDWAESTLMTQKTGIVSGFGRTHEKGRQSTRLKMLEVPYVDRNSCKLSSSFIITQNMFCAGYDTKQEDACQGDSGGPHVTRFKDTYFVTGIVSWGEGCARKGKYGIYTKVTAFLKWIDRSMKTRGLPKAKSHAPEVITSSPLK
T2 sequence (P00742 41-179 partner limits assumed): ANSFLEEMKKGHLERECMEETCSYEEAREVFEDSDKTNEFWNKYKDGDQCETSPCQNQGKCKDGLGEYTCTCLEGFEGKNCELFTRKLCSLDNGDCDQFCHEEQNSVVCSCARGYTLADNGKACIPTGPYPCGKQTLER
Sequence of human Factor Xa (P00742 235-488 limits assumed): as the sequence (P00742 235-488 limits assumed) above
Sequence of human Factor Xa (P00742 41-179 partner limits assumed): as the sequence (P00742 41-179 partner limits assumed) above

Consider `O=C(c1ncc(-c2ccncc2)cn1)N1CCN(S(=O)(=O)c2cc3cc(Cl)ccc3[nH]2)CC1` [Example A-105, 1-[(5-Chloroindol-2-yl)sulfonyl]-4-[[5-(pyridin-4-yl)pyrimidin-2-yl]carbonyl]piperazine], for which the IC50 at human thrombin (setting [2]) amounted to 19000 nM.
Turning to `Cl.O=C(C1CC=C(c2ccncc2)CC1)N1CCN(S(=O)(=O)c2ccc3cc(Cl)ccc3c2)CC1` (racemic) [Example A-60, 1-[(6-Chloronaphthalen-2-yl)sulfonyl]-4-[[(1RS)-4-(pyridin-4-yl)-3-cyclohexene]carbonyl]piperazine hydrochloride], the “extension of the prothrombin time (ratio after/before administration)” value in data set [1] is reported as 1.18 times. The “anti-FXa activity in the plasma” value on human Factor Xa worked out at 70%.
For `O=C(c1ncc(-c2cc[n+]([O-])cc2)cn1)N1CCN(S(=O)(=O)c2cc3ccc(Cl)cc3s2)CC1` [Example A-133, 4-[2-[[4-[(6-Chlorobenzo[b]thien-2-yl)sulfonyl]piperazin-1-yl]carbonyl]pyrimidin-5-yl]pyridine N-oxide], the IC50 was found to be 10 nM on human FXa (setting [3]) and 7700 nM at human thrombin (setting [2]).
Consider `CN1CCc2nc(C(=O)N3CCN(S(=O)(=O)c4cc5cc(Cl)ccc5[nH]4)CC3)sc2C1` [Example B-54, hydrochloride], for which the IC50 at human FXa (same test as Tables 1-6, read-out: FXa 50% inhibitory concentrations) was found to be 5 nM; at human thrombin (same test as Tables 7-8, read-out: thrombin 50% inhibitory concentration), 1050 nM.
As to `O=C(c1cnc(-c2cc[n+]([O-])cc2)cn1)N1CCN(S(=O)(=O)c2cc3cc(Cl)ccc3[nH]2)CC1` [Example A-140, 4-[5-[[4-[(5-Chloroindol-2-yl)sulfonyl]piperazin-1-yl]carbonyl]pyrazin-2-yl]pyridine N-oxide], the IC50 at human FXa (setting [3]) amounted to 6.8 nM; on human thrombin (setting [2]), 1370 nM.
Turning to `CN1Cc2ccc(C(=O)N3CCN(S(=O)(=O)c4cc5cc(Cl)ccc5[nH]4)CC3)cc2C1` (as salt: salt) [Example B-190, 1-[(5-Chloroindol-2-yl)sulfonyl]-4-[(2-methylisoindolin-5-yl)carbonyl]piperazine], the melting point is 175 to 180 °C (dec.).
In the case of `O=C(c1ncc(-c2cc[n+]([O-])cc2)cn1)N1CCN(S(=O)(=O)c2cc3cc(Cl)ccc3[nH]2)CC1` [Example A-134, 4-[2-[[4-[(5-Chloroindol-2-yl)sulfonyl]piperazin-1-yl]carbonyl]pyrimidin-5-yl]pyridine N-oxide], the IC50 on human FXa (setting [3]) is 4.6 nM; on human thrombin (setting [2]) it was 10200 nM.
As for `O=C(c1ccc(-c2cccc[n+]2[O-])cc1)N1CCN(S(=O)(=O)c2cc3cc(Cl)ccc3[nH]2)CC1` [Example A-109, 2-[4-[[4-[(5-Chloroindol-2-yl)sulfonyl]piperazin-1-yl]carbonyl]phenyl]pyridine N-oxide], the IC50 came out at 6.9 nM at human FXa (setting [3]) and 1550 nM on human thrombin (setting [2]).
On to `O=C(c1cnc(-c2ccncc2)cn1)N1CCN(S(=O)(=O)c2cc3cc(Cl)ccc3[nH]2)CC1` [Example A-138, 1-[(5-Chloroindol-2-yl)sulfonyl]-4-[[5-(pyridin-4-yl)pyrazin-2-yl]carbonyl]piperazine], for which the IC50 on human FXa (setting [3]) came out at 5 nM; at human thrombin (setting [2]) it was 5900 nM.
Take `O=C(c1ccc2c(c1)CNC2)N1CCN(S(=O)(=O)c2cc3cc(Cl)ccc3[nH]2)CC1` [Example B-189, 1-[(5-Chloroindol-2-yl)sulfonyl]-4-[(isoindolin-5-yl)carbonyl]piperazine]: the melting point was 196 to 199 °C (dec.).
With `O=C(c1ccc(-c2cccc[n+]2[O-])cc1)N1CCN(S(=O)(=O)c2cc3ccc(Cl)cc3s2)CC1` [Example A-117, 2-[4-[[4-[(6-Chlorobenzo[b]thien-2-yl)sulfonyl]piperazin-1-yl]carbonyl]phenyl]pyridine N-oxide], the IC50 at human FXa (setting [3]) was 10.5 nM; on human thrombin (setting [2]), 4100 nM.
For the compound `O=C(c1cnc(-c2ccncc2)cn1)N1CCN(S(=O)(=O)c2ccc3cc(Cl)ccc3c2)CC1` [Example A-137, 1-[(6-Chloronaphthalen-2-yl)sulfonyl]-4-[[5-(pyridin-4-yl)pyrazin-2-yl]carbonyl]piperazine], the IC50 on human FXa (setting [3]) was 60 nM; at human thrombin (setting [2]), 4100 nM.
For `C#Cc1ccc2cc(S(=O)(=O)N3CCN(C(=O)c4ncc(-c5ccncc5)cn4)CC3)sc2c1` [Example A-216, 4-[[5-(Pyridin-4-yl)pyrimidin-2-yl]carbonyl]-1-[(6-ethynylbenzo[b]thien-2-yl)sulfonyl]piperazine] the same measures were 15 nM and more than 50000 nM.
For `O=C(c1ncc(-c2ccncc2)cn1)N1CCN(S(=O)(=O)c2ccc3cc(Cl)ccc3c2)CC1` [Example A-123, 1-[(6-Chloronaphthalen-2-yl)sulfonyl]-4-[[5-(pyridin-4-yl)pyrimidin-2-yl]carbonyl]piperazine] the same measures were 23 nM and 16000 nM.
For `C#Cc1ccc2[nH]c(S(=O)(=O)N3CCN(C(=O)c4ccc(-c5ccncc5)cc4)CC3)cc2c1` [Example A-103, 1-[(5-Ethynylindol-2-yl)sulfonyl]-4-[4-(pyridin-4-yl)benzoyl]piperazine] the same measures were 27 nM and 2220 nM.
For `O=C(c1cnc(-c2cc[n+]([O-])cc2)nc1)N1CCN(S(=O)(=O)c2cc3cc(Cl)ccc3[nH]2)CC1` [Example A-135, 4-[5-[[4-[(5-Chloroindol-2-yl)sulfonyl]piperazin-1-yl]carbonyl]pyrimidin-2-yl]pyridine N-oxide], at human FXa (setting [3]), the IC50 was 14 nM.
As to `CCC1CN(S(=O)(=O)c2cc3cc(Cl)ccc3[nH]2)CCN1C(=O)c1ncc(-c2cccc[n+]2[O-])cn1` (stereo not shown) [Example A-224, 2-[2-[[4-[(5-Chloroindol-2-yl)sulfonyl]-2-ethylpiperazin-1-yl]carbonyl]pyrimidin-5-yl]pyridine N-oxide], the IC50 at human FXa (setting [3]) worked out at 7.6 nM.
With “1-[(5-Chloroindol-2-yl)sulfonyl]-4-[4-methyl-2-(pyridin-4-yl)thiazol-5-yl]piperazine [Example A-296]”, the IC50 at human FXa (setting [3]) is 1.3 nM.
Consider `CN(C)C(=O)C[C@@H]1CN(S(=O)(=O)c2cc3ccc(Cl)cc3s2)C[C@H](CC(=O)N(C)C)N1C(=O)c1ncc(-c2cc[n+]([O-])cc2)cn1` [Example A-279, 4-[2-[[2,cis-6-Bis[(N,N-dimethylcarbamoyl)methyl]-4-[(6-chlorobenzo[b]thien-2-yl)sulfonyl]piperazin-1-yl]carbonyl]pyrimidin-5-yl]pyridine N-oxide], for which the IC50 at human FXa (setting [3]) turned out to be 10 nM.
`O=C(c1ncc(-c2ccncc2)cn1)N1CCN(S(=O)(=O)c2cc3ccc(Cl)cc3s2)CC1` [Example A-132, 1-[(6-Chlorobenzothiophen-2-yl)sulfonyl]-4-[[5-(pyridin-4-yl)pyrimidin-2-yl]carbonyl]piperazine]: the results for the IC50 at human FXa (setting [3]) and at human thrombin (setting [2]) were 5.6 nM and more than 100000 nM, respectively.
In the case of `O=C(c1cnccc1-c1ccncc1)N1CCN(S(=O)(=O)c2ccc3cc(Cl)ccc3c2)CC1` [Example A-4, hydrochloride], the IC50 at human FXa (setting [3]) was determined as 54 nM.
